Columns and labels:
[1] = tested on: human keratinocyte cell line (HaCaT); test: Cytokine secretion on protein level in activated human keratinocyte cell line HaCaT (13-plex FACS / Luminex, supernatant); assay type: cell-based; settings: substance 10^−9M
Experimental: (§1) Primary T-cells were isolated from peripheral blood from healthy volunteers and from secondary lymphatic organs from naïve C57BL/6 mice, respectively. The cells were stimulated with phorbol-12-myristate-13-acetate (PMA)/Ionomycin and interferon-gamma (IFN-γ), respectively, for 48 h to activate the cells. The activated cells release pro-inflammatory cytokines. In parallel a human (HaCaT) keratinocyte cell line was activated with PMA/Ionomycin and IFN-γ, respectively, too. […] At the same time release of anti-inflammatory IL-10 was inhibited. Two days after addition of PMA/Ionomycin and IFN-γ, respectively, the induction of IL-1 secretion was determined in the supernatant for proving that the cells are activated. […] The anti-inflammatory properties of the tripeptides were determined 48 h and 72 h following stimulation. A 13-plex-system based FACS analysis was used for showing the reduced secretion of pro-inflammatory cytokines in the supernatant. Data for IL-1, IL-2, IL-6, IL-12p70 IL-17, IFN-γ and TNF-α are considered to be most relevant. Thus, analysis of the anti-inflammatory properties of the tripeptides is preferably based on the results obtained for these analytes. […] Using this method the gene expression of pro-inflammatory markers like IL-6, IL-17, IFN-γ and TNF-α was determined.
In a third experiment murine and human T cells and HaCaT cells were stimulated with PMA/Ionomycin and treated with Examples 14, 15, 16 and 17 at 10^−7 M, 10^−9 M and 10^−11 M. Cytokine concentrations (IFN-γ, IL-17 and IL-10 for T cells and IFN-γ for HaCat) were assessed in the supernatants using the Luminex technology. Expression of genes coding for Il-1β, IL-6 and TNF-α was determined. […] Moreover, concentrations of pro-inflammatory cytokines IFN-γ and IL-17 was reduced in the supernatants whereas the concentration of anti-inflammatory cytokine IL-10 was increased. […]
For the biological assay two human cell lines of different origin were chosen to allow for translation of the results obtained. A HaCaT cell is a cell type belonging to an immortal human keratinocyte line used in scientific research. Its use in research allows for the characterization of human keratinocyte using a model that is reproducible and representing a human epithelial cell line. In contrast human T-lymphocytes (T-cells) are a type of lymphocyte (itself a type of white blood cell) that play a central role in cell-mediated inflammation/immunity.

primary murine T-cells = test: Cytokine secretion on protein level in activated primary murine T-cells (13-plex FACS / Luminex, supernatant); assay type: cell-based, C57BL/6 mice; settings: substance 10^−9M
Experimental: as §1
In a third experiment murine and human T cells and HaCaT cells were stimulated with PMA/Ionomycin and treated with Examples 14, 15, 16 and 17 at 10^−7 M, 10^−9 M and 10^−11 M. Cytokine concentrations (IFN-γ, IL-17 and IL-10 for T cells and IFN-γ for HaCat) were assessed in the supernatants using the Luminex technology. Expression of genes coding for Il-1β, IL-6 and TNF-α was determined. […] Moreover, concentrations of pro-inflammatory cytokines IFN-γ and IL-17 was reduced in the supernatants whereas the concentration of anti-inflammatory cytokine IL-10 was increased.
The anti-inflammatory and immunomodulatory effects of selected examples of the present invention were compared with common immunosuppressants. Thus, cells activated with PMA/Ionomycin and IFN-γ, respectively, were stimulated with MMF or dexamethasone. Following stimulation the secretion of pro-inflammatory cytokines was analyzed on protein and gene level (Table 9 and FIGS. 4-6).

[2] = HaCaT stimulated with PMA/Ionomycin
[3] = primary murine T-cells stimulated with IFN-γ
[4] = primary murine T-cells stimulated with PBS

COc1c(C)c2c(c(O)c1C/C=C(\C)CCC(=O)OCCN1CCOCC1)C(=O)OC2 [MMF, mycophenolate mofetil, reference compound] gave an IL-1 cytokine concentration ([1]; HaCaT stimulated with IFN-γ) of 0 pg/mL, an IL-2 cytokine concentration ([1]; HaCaT stimulated with IFN-γ) of 0 pg/mL and an IL-4 cytokine concentration ([1]; HaCaT stimulated with IFN-γ) of 33.01 pg/mL. For the same compound, the IL-5 cytokine concentration ([1]; HaCaT stimulated with IFN-γ) was 0 pg/mL, the IL-6 cytokine concentration ([1]; HaCaT stimulated with IFN-γ) was 239.05 pg/mL and the IL-9 cytokine concentration ([1]; HaCaT stimulated with IFN-γ) was 0 pg/mL. It also gave an IL-10 cytokine concentration ([1]; HaCaT stimulated with IFN-γ) of 0 pg/mL, an IL-12 cytokine concentration ([1]; HaCaT stimulated with IFN-γ) of 0 pg/mL and an IL-13 cytokine concentration ([1]; HaCaT stimulated with IFN-γ) of 0 pg/mL. The IL-17 cytokine concentration ([1]; HaCaT stimulated with IFN-γ) was 58.48 pg/mL, the IL-22 cytokine concentration ([1]; HaCaT stimulated with IFN-γ) was 0 pg/mL and the TNF-α cytokine concentration ([1]; HaCaT stimulated with IFN-γ) was 0 pg/mL. For the same compound, the IFN-γ cytokine concentration ([1]; HaCaT stimulated with PBS) was 0 pg/mL, the IL-1 cytokine concentration ([1]; HaCaT stimulated with PBS) was 0 pg/mL and the IL-2 cytokine concentration ([1]; HaCaT stimulated with PBS) was 0 pg/mL. It also gave an IL-4 cytokine concentration ([1]; HaCaT stimulated with PBS) of 120.89 pg/mL, an IL-5 cytokine concentration ([1]; HaCaT stimulated with PBS) of 0 pg/mL and an IL-6 cytokine concentration ([1]; HaCaT stimulated with PBS) of 39.58 pg/mL. It also gave an IL-9 cytokine concentration ([1]; HaCaT stimulated with PBS) of 0 pg/mL, an IL-10 cytokine concentration ([1]; HaCaT stimulated with PBS) of 33.26 pg/mL and an IL-12 cytokine concentration ([1]; HaCaT stimulated with PBS) of 0 pg/mL. For the same compound, the IL-13 cytokine concentration ([1]; HaCaT stimulated with PBS) was 0 pg/mL, the IL-17 cytokine concentration ([1]; HaCaT stimulated with PBS) was 0 pg/mL and the IL-22 cytokine concentration ([1]; HaCaT stimulated with PBS) was 0 pg/mL. For the same compound, the TNF-α cytokine concentration ([1]; HaCaT stimulated with PBS) was 0 pg/mL, the IFN-γ cytokine concentration [1, 2] was 0 pg/mL and the IL-1 cytokine concentration [1, 2] was 0 pg/mL. For the same compound, the IL-2 cytokine concentration [1, 2] was 0 pg/mL, the IL-4 cytokine concentration [1, 2] was 98.71 pg/mL and the IL-5 cytokine concentration [1, 2] was 0 pg/mL. The IL-6 cytokine concentration [1, 2] was 116.51 pg/mL, the IL-9 cytokine concentration [1, 2] was 0 pg/mL and the IL-10 cytokine concentration [1, 2] was 66.23 pg/mL. It also gave an IL-12 cytokine concentration [1, 2] of 0 pg/mL, an IL-13 cytokine concentration [1, 2] of 0 pg/mL and an IL-17 cytokine concentration [1, 2] of 0 pg/mL. For the same compound, the IL-22 cytokine concentration [1, 2] was 0 pg/mL, the TNF-α cytokine concentration [1, 2] was 0 pg/mL and the IL-1 cytokine concentration (primary murine T-cells; [3]) was 100.02 pg/mL. It also gave an IL-2 cytokine concentration (primary murine T-cells; [3]) of 79.63 pg/mL, an IL-4 cytokine concentration (primary murine T-cells; [3]) of 59.48 pg/mL and an IL-5 cytokine concentration (primary murine T-cells; [3]) of 254.61 pg/mL. It also gave an IL-6 cytokine concentration (primary murine T-cells; [3]) of 111.95 pg/mL, an IL-10 cytokine concentration (primary murine T-cells; [3]) of 936.45 pg/mL and an IL-13 cytokine concentration (primary murine T-cells; [3]) of 0 pg/mL. It also gave an IL-17 cytokine concentration (primary murine T-cells; [3]) of 61.58 pg/mL, an IL-21 cytokine concentration (primary murine T-cells; [3]) of 0 pg/mL and an IL-22 cytokine concentration (primary murine T-cells; [3]) of 55.98 pg/mL. For the same compound, the IL-27 cytokine concentration (primary murine T-cells; [3]) was 40.8 pg/mL, the TNF-α cytokine concentration (primary murine T-cells; [3]) was 33.64 pg/mL and the IFN-γ cytokine concentration (primary murine T-cells; [4]) was 0 pg/mL. It also gave an IL-1 cytokine concentration (primary murine T-cells; [4]) of 62.31 pg/mL, an IL-2 cytokine concentration (primary murine T-cells; [4]) of 100.77 pg/mL and an IL-4 cytokine concentration (primary murine T-cells; [4]) of 61.12 pg/mL. For the same compound, the IL-5 cytokine concentration (primary murine T-cells; [4]) was 337.89 pg/mL, the IL-6 cytokine concentration (primary murine T-cells; [4]) was 90.56 pg/mL and the IL-10 cytokine concentration (primary murine T-cells; [4]) was 745.12 pg/mL.

Reference: patent US10954269B2, “Anti-inflammatory tripeptides” (Dr. August Wolff Gmbh & Co. KG Arzneimittel, priority 2013, dated 2021)
